The assay deals with purified human CD4+ T cells. The assay can be described thus: IL-21 production in IC-treated CD4+ T cells with Syk inhibitor. Type of assay: cell-based. Particulars: P505 10 nM; cells producing IL-21 from IC treatment; FIG. 4F (A).

The structures appear in SMILES notation. “Also recorded” adds a separate entry of the source.

For `NC(=O)c1cnc(N[C@@H]2CCCC[C@@H]2N)nc1Nc1cccc(-n2nccn2)c1` [P505], the IL-21 production result is listed as “IL-21 production is blocked; also recorded: inhibits IL-21 production”.

The record behind these values is US20210254001A1, “FcyRIIIa signaling generates Bcl6+PD1+CD4+ Tfh-like cells” (priority 2020, published 2021).
